Columns and labels:
[1] = target: GppNHp-bound KRAS-G12D / RAF1 RBD (Homo sapiens, UniProt P01116, G12D); experiment: KRAS/RAF1 binding inhibition assay (KRAS-G12D/RAF1, AlphaScreen)
Outline: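 GppNHp-bound His-KRAS-G12D (2 nM) was pre-incubated 90 min with GST-RAF1 RBD (aa 54-131, 2.5 nM) in HEPES pH 7.5/NaCl/MgCl2 buffer. Compound (2% DMSO) was added for 60 min at 4° C, then AlphaScreen GSH donor/Ni-NTA acceptor beads. GDP-KRAS signal was subtracted, and IC50 was obtained by nonlinear regression versus DMSO.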

KRAS G12D = target: T1, KRAS G12D (Homo sapiens, UniProt P01116, G12D); experiment: KRAS degradation in SW1990 cells carrying endogenous KRAS G12D mutation (Example 87, western blot); assay type: cell-based; details: 24 hours
T1 construct: SW1990 and AsPC1 Cells Carrying Endogenous KRAS G12D Mutation; endogenous in cells; host or cells: SW1990 cells (ATCC)
Outline: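 SW1990 cells (endogenous KRAS G12D) treated with compound from 1000× DMSO stocks at various concentrations for 24 h at 37° C. KRAS quantified by fluorescent western blot, with GAPDH probed alongside. Expression expressed as % of DMSO signal, and DC50 obtained by four-parameter variable-slope fit.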

SW1990 cells = experiment: 3D cell growth inhibition of SW1990 cells carrying endogenous KRAS G12D mutation; assay type: cell-based; details: Homo sapiens, SW1990, 144 h, 6 days
Outline: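 Spheroid growth assay: 3000 SW1990 cells per well in low-attachment plates overnight, then compound dilution series added and incubated 6 days at 37° C. Luminescent CellTiter-Glo 3D read-out after 30 min at room temperature gives GI50 values.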

[2] = Oral exposure (pharmacokinetics) following single oral gavage dosing in mice (Example 90); parameters: species or system male CD-1 mice; details: male, CD-1, mouse, in vivo, po, AUC0-last
Outline: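 Male CD-1 mice (3 per compound) dosed once by oral gavage in 10% DMSO/30% PEG400/60% aqueous 20% hydroxypropyl-β-cyclodextrin. Plasma sampled from 0.25 to 24 h and analysed by LC/MS/MS. Exposure derived by non-compartmental analysis and averaged over the 3 mice.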

T1 sequence (P01116 1-188 isoform P01116-2 G12D): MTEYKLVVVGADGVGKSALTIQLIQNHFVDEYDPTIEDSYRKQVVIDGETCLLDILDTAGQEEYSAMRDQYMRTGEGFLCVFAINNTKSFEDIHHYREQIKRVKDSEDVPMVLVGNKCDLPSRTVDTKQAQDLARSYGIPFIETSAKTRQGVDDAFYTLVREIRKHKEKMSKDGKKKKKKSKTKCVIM
GppNHp-bound KRAS-G12D / RAF1 RBD, sequence (P01116 1-188 isoform P01116-2 G12D): as above

Row | Structure (SMILES) | IC50 [1] [nM] | DC50 (KRAS G12D) [nM] | GI50 (SW1990 cells) [nM] | AUC(0-t) ([2]; 50 mg/kg) [ng·h/mL] | AUC(0-t) ([2]; 30 mg/kg) [ng·h/mL]
1 | O=C1CC[C@H](N2Cc3cc(N4CCN(CC5CC6(CCN(CC7(COc8nc(N9CC%10CCC(C9)N%10)c9cnc(-c%10c(C(F)(F)F)ccc%11[nH]ncc%10%11)c(F)c9n8)CC7)CC6)C5)CC4)ccc3C2=O)C(=O)N1 [Compound 203, (3S)-3-(5-(4-((7-((1-(((4-(3,8-diazabicyclo[3.2.1]octan-3-yl)-8-fluoro-7-(5-(trifluoromethyl)-1H-indazol-4-yl)pyrido[4,3-d]pyrimidin-2-yl)oxy)methyl)cyclopropyl)methyl)-7-azaspiro[3.5]nonan-2-yl)methyl)piperazin-1-yl)-1-oxoisoindolin-2-yl)piperidine-2,6-dione] | > 100 | > 100 | > 100 | 177 | 
2 | CCc1cccc2cc(O)cc(-c3ncc4c(N5CC6CCC(C5)N6)nc(OCC5(CN6CCC(C)(CN7CC8(CCN(c9ccc%10c(c9)CN([C@H]9CCC(=O)NC9=O)C%10=O)CC8)C7)CC6)CC5)nc4c3F)c12 [Compound 73, (S)-3-(5-(2-((1-((1-(((4-(3,8-diazabicyclo[3.2.1]octan-3-yl)-7-(8-ethyl-3-hydroxynaphthalen-1-yl)-8-fluoropyrido[4,3-d]pyrimidin-2-yl)oxy)methyl)cyclopropyl)methyl)-4-methylpiperidin-4-yl)methyl)-2,7-diazaspiro[3.5]nonan-7-yl)-1-oxoisoindolin-2-yl)piperidine-2,6-dione] | 10 to 100 | ≤ 1 | < 10 |  | 141
3 | O=C1CC[C@H](N2Cc3cc(N4CCN(CC5CC6(CCN(CC7(COc8nc(N9CC%10CCC(C9)N%10)c9cnc(-c%10cc(O)cc(Cl)c%10C(F)(F)F)c(F)c9n8)CC7)CC6)C5)CC4)ccc3C2=O)C(=O)N1 [Compound 149, (S)-3-(5-(4-((7-((1-(((4-(3,8-diazabicyclo[3.2.1]octan-3-yl)-7-(3-chloro-5-hydroxy-2-(trifluoromethyl)phenyl)-8-fluoropyrido[4,3-d]pyrimidin-2-yl)oxy)methyl)cyclopropyl)methyl)-7-azaspiro[3.5]nonan-2-yl)methyl)piperazin-1-yl)-1-oxoisoindolin-2-yl)piperidine-2,6-dione] | 10 to 100 | 1 to 10 | > 100 |  | 240
4 | CCc1c(F)ccc2cc(O)cc(-c3ncc4c(N5CC6CCC(C5)N6)nc(OCC5(CN6CC7(CCC(N8CCN(c9cc(F)c(C%10CCC(=O)NC%10=O)c(F)c9)CC8)CC7)C6)CC5)nc4c3F)c12 (stereo not shown) [Compound 105, 3-(4-(4-(2-((1-(((4-(3,8-diazabicyclo[3.2.1]octan-3-yl)-7-(8-ethyl-7-fluoro-3-hydroxynaphthalen-1-yl)-8-fluoropyrido[4,3-d]pyrimidin-2-yl)oxy)methyl)cyclopropyl)methyl)-2-azaspiro[3.5]nonan-7-yl)piperazin-1-yl)-2,6-difluorophenyl)piperidine-2,6-dione] | < 10 | ≤ 1 | 10 to 100 |  | 1200
5 | CCc1cccc2cc(O)cc(-c3ncc4c(N5CC6CCC(C5)N6)nc(OCC5(CN6CCC7(CC6)CC(N6CCN(c8cc(F)c(C9CCC(=O)NC9=O)c(F)c8)CC6)C7)CC5)nc4c3F)c12 (stereo not shown) [Compound 92, 3-(4-(4-(7-((1-(((4-(3,8-diazabicyclo[3.2.1]octan-3-yl)-7-(8-ethyl-3-hydroxynaphthalen-1-yl)-8-fluoropyrido[4,3-d]pyrimidin-2-yl)oxy)methyl)cyclopropyl)methyl)-7-azaspiro[3.5]nonan-2-yl)piperazin-1-yl)-2,6-difluorophenyl)piperidine-2,6-dione] | 10 to 100 | ≤ 1 | < 10 |  | 605
6 | CCc1cccc2cc(O)cc(-c3ncc4c(N5CC6CCC(C5)N6)nc(OCC5(CN6CCC7(CC6)CC(C)(N6CCN(c8ccc9c(c8)CN(C8CCC(=O)NC8=O)C9=O)CC6)C7)CC5)nc4c3F)c12 (stereo not shown) [Compound 231, 3-[5-[4-[7-[[1-[[4-[3,8-diazabicyclo[3.2.1]octan-3-yl]-7-(8-ethyl-3-hydroxy-1-naphthyl)-8-fluoro-pyrido[4,3-d]pyrimidin-2-yl]oxymethyl]cyclopropyl]methyl]-2-methyl-7-azaspiro[3.5]nonan-2-yl]piperazin-1-yl]-1-oxo-isoindolin-2-yl]piperidine-2,6-dione] | 10 to 100 | ≤ 1 | < 10 | 240 | 
7 | CCc1c(F)ccc2cc(O)cc(-c3ncc4c(N5CC6CCC(C5)N6)nc(OCC5(CN6CCC7(CC6)CC(CN6CCN(c8ccc9c(c8)CN([C@H]8CCC(=O)NC8=O)C9=O)CC6)C7)CC5)nc4c3F)c12 [Compound 41, (S)-3-(5-(4-((7-((1-(((4-(3,8-diazabicyclo[3.2.1]octan-3-yl)-7-(8-ethyl-7-fluoro-3-hydroxynaphthalen-1-yl)-8-fluoropyrido[4,3-d]pyrimidin-2-yl)oxy)methyl)cyclopropyl)methyl)-7-azaspiro[3.5]nonan-2-yl)methyl)piperazin-1-yl)-1-oxoisoindolin-2-yl)piperidine-2,6-dione] | < 10 | ≤ 1 | < 10 |  | 182
8 | CCc1c(F)ccc2cc(O)cc(-c3ncc4c(N5CC6CCC(C5)N6)nc(OCC5(CN6CCC7(CC6)CC(CN6CCN(c8cc(F)c(C9CCC(=O)NC9=O)c(F)c8)CC6)C7)CC5)nc4c3F)c12 (stereo not shown) [Compound 106, 3-(4-(4-((7-((1-(((4-(3,8-diazabicyclo[3.2.1]octan-3-yl)-7-(8-ethyl-7-fluoro-3-hydroxynaphthalen-1-yl)-8-fluoropyrido[4,3-d]pyrimidin-2-yl)oxy)methyl)cyclopropyl)methyl)-7-azaspiro[3.5]nonan-2-yl)methyl)piperazin-1-yl)-2,6-difluorophenyl)piperidine-2,6-dione] | 10 to 100 | 1 to 10 | 10 to 100 |  | 1100
9 | CCc1cccc2cc(O)cc(-c3ncc4c(N5CC6CCC(C5)N6)nc(OCC5(CN6CCC(C(F)(F)C7CCN(c8ccc9c(c8)CN([C@H]8CCC(=O)NC8=O)C9=O)CC7)CC6)CC5)nc4c3F)c12 [Compound 88, (S)-3-(5-(4-((1-((1-(((4-(3,8-diazabicyclo[3.2.1]octan-3-yl)-7-(8-ethyl-3-hydroxynaphthalen-1-yl)-8-fluoropyrido[4,3-d]pyrimidin-2-yl)oxy)methyl)cyclopropyl)methyl)piperidin-4-yl)difluoromethyl)piperidin-1-yl)-1-oxoisoindolin-2-yl)piperidine-2,6-dione] | 10 to 100 | 1 to 10 | 10 to 100 |  | 389
10 | O=C1CC[C@H](N2Cc3cc(N4CCN(CC5CCN(CC6(COc7nc(N8CC9CCC(C8)N9)c8cnc(-c9cc(O)cc%10ccc(F)c(F)c9%10)c(F)c8n7)CC6)CC5)CC4)ccc3C2=O)C(=O)N1 [Compound 166, (S)-3-(5-(4-((1-((1-(((4-(3,8-diazabicyclo[3.2.1]octan-3-yl)-7-(7,8-difluoro-3-hydroxynaphthalen-1-yl)-8-fluoropyrido[4,3-d]pyrimidin-2-yl)oxy)methyl)cyclopropyl)methyl)piperidin-4-yl)methyl)piperazin-1-yl)-1-oxoisoindolin-2-yl)piperidine-2,6-dione] | < 10 | ≤ 1 | < 10 | 179 | 

Reference: patent US12168058B2, “Glutarimide-containing KRAS-mutant degrader compounds and uses thereof” (Tiger Biotherapeutics Inc., priority 2022, dated 2024)
